Results: ChEMBL document CHEMBL4020762, “Protective effect of lanostane triterpenoids from the sclerotia of Poria cocos Wolf against cisplatin-induced apoptosis in LLC-PK1 cells” (2017)
Activity calls are given as the source filed them. The calls are words filed in the database; no cut-off is given here.

Key:
LLC-PK1 [1] = assay: Renoprotective activity in pig LLC-PK1 cells assessed as inhibition of cisplatin-induced damage by measuring increase in cell viability at 10 to 100 uM preincubated for 2 hrs followed by cisplatin addition after 24 hrs by Ez-Cytox reagent based assay; type: functional; conditions: Sus scrofa
A2780 [2] = assay: Potentiation of cisplatin-induced cytotoxicity against human A2780 cells after 24 hrs in presence of cisplatin by Ez-Cytox reagent based assay; type: functional, cell-based
LLC-PK1 [3] = assay: Renoprotective activity in pig LLC-PK1 cells assessed as inhibition of cisplatin-induced damage by measuring increase in cell viability preincubated for 2 hrs followed by cisplatin addition after 24 hrs by Ez-Cytox reagent based assay; type: functional; conditions: Sus scrofa
Sus scrofa [4] = species: Sus scrofa; assay: Inhibition of cisplatin-induced increase in phosphorylated ERK levels in pig LLC-PK1 cells at 50 to 100 uM pretreated for 2 hrs followed by cisplatin addition after 24 hrs by radioimmunoprecipitation assay; type: cell-based
A2780 [5] = assay: Potentiation of cisplatin-induced cytotoxicity against human A2780 cells up to 100 uM after 24 hrs in presence of cisplatin by Ez-Cytox reagent based assay; type: functional, cell-based
Sus scrofa [6] = species: Sus scrofa; assay: Inhibition of cisplatin-induced increase in phosphorylated p38 MAPK levels in pig LLC-PK1 cells at 50 to 100 uM pretreated for 2 hrs followed by cisplatin addition after 24 hrs by radioimmunoprecipitation assay; type: cell-based
Sus scrofa [7] = species: Sus scrofa; assay: Inhibition of cisplatin-induced increase in phosphorylated JNK levels in pig LLC-PK1 cells at 50 to 100 uM pretreated for 2 hrs followed by cisplatin addition after 24 hrs by radioimmunoprecipitation assay; type: cell-based
LLC-PK1 [8] = assay: Renoprotective activity in pig LLC-PK1 cells assessed as inhibition of cisplatin-induced increase in caspase-3 cleavage at 50 to 100 uM preincubated for 2 hrs followed by cisplatin addition after 24 hrs by radioimmunoprecipitation assay; type: functional, cell-based; conditions: Sus scrofa
LLC-PK1 [9] = assay: Renoprotective activity in pig LLC-PK1 cells assessed as inhibition of cisplatin-induced apoptosis by measuring apoptotic cells at 50 to 100 uM preincubated for 2 hrs followed by cisplatin addition after 24 hrs by annexin-V Alexa Fluor488/propidium iodide staining based cytometric method (reference value: 26.3%); type: functional, Sus scrofa
LLC-PK1 [10] = assay: Renoprotective activity in pig LLC-PK1 cells assessed as inhibition of cisplatin-induced damage by measuring cell viability at 50 to 100 uM preincubated for 2 hrs followed by cisplatin addition after 24 hrs by Ez-Cytox reagent based assay (reference value: 60%); type: functional, Sus scrofa

SMILES	inhibition (LLC-PK1 [1])	Activity (A2780 [2])	inhibition (LLC-PK1 [3])	inhibition (Sus scrofa [4])	Activity (A2780 [5])	inhibition (Sus scrofa [6])	inhibition (Sus scrofa [7])	inhibition (LLC-PK1 [8])	inhibition (INH) (LLC-PK1 [9]) [%]	inhibition (INH) (LLC-PK1 [10])
O=c1c(O)c(-c2ccc(O)c(O)c2)oc2cc(O)cc(O)c12	Active	–	–	–	–	–	–	–	–	–
CC(=O)O[C@H]1CC[C@]2(C)C3=CC[C@]4(C)[C@@H]([C@@H](CCC=C(C)C)C(=O)O)CC[C@@]4(C)C3=CC[C@H]2C1(C)C	–	inactive	Dose-dependent effect	–	–	–	–	–	–	–
C=C(CC[C@@H](C(=O)O)[C@H]1CC[C@@]2(C)C3=CC[C@H]4C(C)(C)[C@@H](OC(C)=O)CC[C@]4(C)C3=CC[C@]12C)C(C)C	–	–	Dose-dependent effect	Active	Active	Active	Active	Active	4.3	<=80%
